# Data: US20210317113A1, “1,2,3-TRIAZOLE DERIVATIVES AND USES THEREOF” (Alxerion Biotech LLC, priority 2020, published 2021)
# Where two headings read alike, the source gives them in different places.
# What was measured:
# [1] = system: fibrinolysis mediated by tPA (plasminogen activation by tPA); experiment: Fibrinolytic assay: one-step spectrophotometric clot lysis in human plasma; type: biochemical; settings: for IC50: concentration at which 50% of total fibrinolysis mediated by tPA is inhibited, human ACD plasma, clot triggered by TF, absorbance 340 nm, read-out: Anti-fibrinolytic (SERPIN) Activity IC50; for inhibition of fibrinolysis mediated by tPA (in words): different concentrations, FIGS. 2B-2D
# Protocol: Fibrinolytic activity in human plasma was determined by a one-step spectrophotometric method (Gidron et al. (1978) J. Clin. Pathol. 31(1):54-57) with minor modifications (see EXAMPLE 2). In this method, fibrin clot formation in anticoagulant citrate dextrose (ACD) plasma samples obtained from healthy volunteers is triggered by tissue factor (TF) and can be quantified by spectrometry as a significant increase in basal plasma absorbance at 340 nm.
# As shown in FIGS. 2A-2D, in the absence of tPA, plasma absorbance remains permanently elevated.
# Fibrinolytic activity in human plasmas in the presence of derivatives according to the disclosure was determined by a one-step spectrophotometric method.
# Fibrin clot formation in the anticoagulant acid citrate dextrose (ACD)-treated plasma obtained from healthy volunteers is triggered by tissue factor (TF) (Thromborel S, Siemens Healthineers) and quantifies by spectrophotometry at 340 nm (using a Molecular Devices SpectraMax® M2e Multimode Microplate Reader). When recombinant human Tissue Plasminogen Activator (tPA, final concentration of 5.2 μg/ml) is simultaneously added, fibrinolysis of the clot can be determined.
# Fresh blood was extracted from healthy volunteers. ACD, to reach a 10% concentration, was instantly added to the extracted blood, to prevent any unwanted coagulation. After that, blood was centrifuged for 15 min at 1,000 g. Plasma was clearly separated from red blood cells. 3 mL aliquots of aspirated plasma were immediately frozen at −20° C.
# 4 mL of ddH2O was added to a vial of Thromborel S and mixed thoroughly for 2 min. and left at 4° C. 500 μL TF aliquots were used for each experiment.
# Representative derivatives of the present disclosure (Nos. 1, 5, and 7) were diluted in DMSO (those with Boc) or ddH2O (those with HCl) to a final concentration of 10 mM. A solution containing 1 M Tris HCl, pH 7.5 (Fisher BioReagent) (Buffer A), 0.110 g of CaCl2) in 10 mL of ddH2O (Buffer B), and tPA (Abcam, 1.3 mg/mL added into the diluted derivative solution, final concentration in serum was 5.2 μg/mL), and the derivative was prepared in a total volume of 75 μL and added to untreated, flat, clear Costar® 96-well plates in triplicate. Absorbance at 340 nm at 37° C. for 30 min was recorded every 15 sec. The plates were shaken every 3 sec in between readings. Controls for basal plasma absorbance, basal coagulation absorbance and basal fibrinolytic activity absorbance were performed in every assay.
# FIG. 2A show the results a control experiment displaying the ability of TF to cause fibrin clot formation in the absence and presence of t-PA. TF was able to cause fibrin clot formation evaluated as a significant increase of the basal plasma absorbance at 340 nm.
# [2] = system: Non-Small Lung Cancer Cells (NSLCs); experiment: Cancer migration (wound healing) assay; type: cell-based; settings: for concentration at which cell migration was completely impaired: 20 mM calcium medium (FIG. 3)
# Excerpt: The ability of 1,2,3-triazole derivatives according to the disclosure to inhibit cancer cell migration and proliferation in vitro can be measured, e.g., by a wound healing assay (Rodriguez et al., in Cell Migration: Developmental Methods and Protocols, Web et al., Guan ed. Humana Press 294, 23-29). This assay is based on the observation that, upon the creation of an artificial gap on a confluent cancer cell monolayer, the cells on the edge of the created gap will start migrating and proliferating until new cell-cell contacts are established (EXAMPLE 3).
# Non-Small Lung Cancer Cells (NSLCs) migration rate was assessed in an in vitro wound healing assay. This assay is based on the observation that, upon the creation of an artificial gap on a confluent cell monolayer, the cells on the edge of the created gap will start migrating and proliferating until new cell-cell contacts are established.
# A confluent cell layer is a prerequisite for starting this assay. Gap formation is done manually with a scrapper and cell proliferation and migration is determined recording a time-lapse video for 20 hr. with a time interval of 30 min. The microscopic pictures are manually analyzed for obtaining information about the proliferation and migration characteristics of the cultured cells and the image analysis detects the cell covered area.
# NSLCs were cultured in Eagle's Minimum Essential Medium (ATCC-formulated medium, Catalog No. 30-2003) containing fetal bovine serum at 10% during several periods. Wound healing assays with supplemented medium containing 1,2,3-triazole derivatives were performed to evaluate the inhibitory effect on proliferation and migration of cancer cells.
# In order to simulate as close as possible the in vivo cancer microenvironment, human plasma and calcium were added to the cell culture system to provide the hemostatic factors normally present in the cancer stroma. The previous day, cells were seeded with 10% FBS at a number that would provide 90% confluence the next day. On Day 0, a scratch (“a wound”) was performed in the middle of the well and the 10% FBS medium was replaced with 20% plasma, 20 mM calcium medium, with or without Derivative 1. 10% FBS medium was used as control in these experiments. “Wound healing” or closure of the scratch was assessed over a period of 4 days, and cell number in the wound area was quantified for each condition. Increasing amount of Derivative 1 (LTI6) was used to attain a dose-response curve.
# The cell function effect of Derivative 1 was compared with Tranexamic Acid (TNA) and Caproic Acid (CA), commercially available and widely used anti-metastasis drugs.
# [3] = system: Non-Small Lung Cancer Cells (NSLCs); experiment: Trypan Blue Exclusion Test of cancer cell viability; type: cell-based; settings: for IC50: defined in text as concentration of derivative causing greater than 90% of the cells to die, read-out: Anti-Cancer Activity (Trypan Blue Exclusion Assay) IC50
# Protocol: The ability of 1,2,3-triazole derivatives according to the disclosure to kill cancer cells can be measured, e.g., by Trypan Blue Exclusion Assay which measured cell death by starvation due to the presence of the derivative (see EXAMPLE 4). The results obtained using this assay with some representative 1,2,3-triazole derivatives according to the disclosure are shown below in Table 4.
# The effect of Derivative 1 on cancer cell viability was determined using the Trypan Blue Exclusion Test (Stober (2001) (Curr. Protoc. Immunol., May; Appendix 3:Appendix 3B. doi: 10.1002/0471142735.ima03bs21). The viability of Non-Small Lung Cancer Cells (NSLCs) was assessed over a period of 15 days after the promotion of coagulation with or without 200 μM of 1,2,3-triazole derivative 1 and with or without 2% human plasma. Fresh 2% FBS medium corresponding to each condition was added every 3 days. Cell death was analyzed using Trypan blue staining. 2% FBS medium was used as control. Some representative results are shown in FIGS. 4A-4F.
# [4] = wound healing assay, dose-response curve, read-out: Anti-Cancer Activity (Inhibition of Cancer Cell Migration) IC50
# [5] = 96 h, NSLCs, 20% plasma, 20 mM calcium medium, wound closure over 4 days (FIG. 3), read-out: IC50 from dose response curve, cell migration
SMILES,IC50 [1] [µM],"IC50 [2, 4] [µM]",IC50 [3] [µM],also measured
O=c1[nH]c(-c2cn(C3CCNCC3)nn2)no1 [Derivative 5],,,,"IC50 ([1]; listed as 5): 35 µM; inhibition of fibrinolysis mediated by tPA (in words) [1]: completely inhibit fibrinolysis; IC50 ([2]; wound healing assay, dose-response curve, listed as 5, read-out: Anti-Cancer Activity (Inhibition of Cancer Cell Migration) IC50): 90 µM; IC50 ([3]; listed as 5): 150 µM"
"NC[C@H]1CC[C@H](C(=O)O)CC1 [TNA, Tranexamic Acid, reference compound]",,,,"IC50 [2, 5]: 438 µM; concentration at which cell migration was completely impaired ([2]; NSLCs, 20% plasma): 250 µM"
NCCCn1cc(-c2noc(=O)[nH]2)nn1 [Derivative 6],375,650,800,
NCCCn1cc(/C(N)=N/O)nn1 [Derivative 8],350,500,750,
NCCCn1cc(-c2n[nH]c(=O)o2)nn1 [Derivative 2],200,350,550,
NCCn1cc(C(=O)NN)nn1 [Derivative 15],24,104,815,
NNC(=O)c1cn(C2CCNCC2)nn1 [Derivative 3],180,230,410,
"CCCCCC(=O)O [CA, Caproic Acid, reference compound]",,,,"IC50 ([2]; 96 h, read-out: IC50 from dose response curve, cell migration): 1340 µM; concentration at which cell migration was completely impaired ([2]; NSLCs, 20% plasma): 1400 µM"
NCCCn1cc(C/C(N)=N\O)nn1 [Derivative 11],325,510,680,
NCCCn1ccnn1 [Derivative 14],130,250,450,
NC(NO)c1cn(C2CCNCC2)nn1 (stereo not shown) [Derivative 7],125,270,415,inhibition of fibrinolysis mediated by tPA (in words) [1]: completely inhibit fibrinolysis
NCCCn1cc(C(=O)O)nn1 [Derivative 13],75,125,170,
N/C(Cc1cn(C2CCNCC2)nn1)=N/O [Derivative 10],150,250,370,
O=c1[nH]nc(-c2cn(C3CCNCC3)nn2)o1 [Derivative 1],,120,,"IC50 ([1]; listed as 1): 50 µM; inhibition of fibrinolysis mediated by tPA (in words) [1]: completely inhibit fibrinolysis; IC50 [2, 5]: 96.1 µM; concentration at which cell migration was completely impaired ([2]; NSLCs, 20% plasma): 100 µM; potency relative to CA in inhibition of migration of cancer cells ([2]; from IC50 values, vs Caproic Acid): > 10 ×; potency relative to TNA in inhibition of migration of cancer cells ([2]; from IC50 values, vs Tranexamic Acid): > 4 ×; cell death by Trypan blue staining after 7 days (in words) ([3]; 200 μM, plasma conditions, 7 days, vs plasma alone (FIG. 4C)): even more significant; cell death by Trypan blue staining after 15 days (in words) ([3]; 200 μM, plasma conditions, 15 days, vs FBS and plasma alone (FIG. 4F)): increased cell death; IC50 ([3]; listed as 1): 250 µM"
NCCCn1cc(C(=O)NN)nn1 [Derivative 4],800,1200,2100,

# More lines, main results first:
IC50 [1] [µM],"IC50 [2, 4] [µM]",IC50 [3] [µM],SMILES,also measured
67,129,218,NC1CCC(n2cc(C(=O)O)nn2)CC1 (stereo not shown) [Derivative 29],
320,650,1350,NC1CCC(n2cc(-c3n[nH]c(=O)o3)nn2)CC1 (stereo not shown) [Derivative 17],
153,258,470,NCCn1cc(/C(N)=N/O)nn1 [Derivative 26],
250,345,550,NCCn1cc(-c2n[nH]c(=O)o2)nn1 [Derivative 18],
35,101,101,NCCn1ccnn1 [Derivative 32],
74,190,310,NC1CCC(n2ccnn2)CC1 (stereo not shown) [Derivative 31],
101,220,350,N=C(N)c1cn(CCCN)nn1 [Derivative 34],
375,610,880,NC1CCC(n2cc(-c3noc(=O)[nH]3)nn2)CC1 (stereo not shown) [Derivative 19],
500,820,1100,"O=c1[nH]c(-c2cn(C3CCNCC3)nn2)no1 [compound 9, 3-(1-(piperidin-4-yl)-1H-1,2,3-triazol-4-yl)-1,2,4-oxadiazol-5(4H)-one]",
15,87,210,NCCn1cc(-c2noc(=O)[nH]2)nn1 [Derivative 20],
29,82,184,N=C(N)c1cn(C2CCNCC2)nn1 [Derivative 33],
50,120,210,NCCCn1cc(-c2nnc(C(=O)O)o2)nn1 [Derivative 22],
119,278,415,N=C(N)c1cn(CCN)nn1 [Derivative 36],
370,520,710,NCCn1cc(C(=O)O)nn1 [Derivative 30],
290,450,670,N=C(N)c1cn(C2CCC(N)CC2)nn1 (stereo not shown) [Derivative 35],
35,89,210,NC1CCC(n2cc(-c3nnc(C(=O)O)o3)nn2)CC1 (stereo not shown) [Derivative 23],
